Measurements published in patent US20240389585A1, “METHOD FOR PROMOTING PLANT GROWTH” (priority 2021, published 2024).

Columns and labels:
Complex soil microbiome = assay: Crystal violet biofilm biomass, MeJA chemical analogs; format: cell-based; conditions: 20 hrs
Protocol: Complex soil microbiome was treated with various MeJA chemical analogs over 20 hrs and stained with CV. The full chemical name of the chemical analogs are as follows: DHJ: Dihydro jasmonic acid; MDHJ: Methyl dihydro jasmonate; MJ: Methyl jasmonate; MO: Methyl octanoate.
This method was used to get a proxy for biofilm biomass. Briefly, planktonic cells were discarded. 50 μL of 0.1% CV solution was added to the well very gently. The biofilm was stained for 10 minutes. The dye was removed gently. 100 μL of PBS was added to the well to wash off the excess CV. PBS was removed, and the wells were left to dry overnight. The next day, 200 ul of 1% SDS was added to each well and was resuspended vigorously with a pipette. After 20 minutes, 20 ul from the top suspension was removed and added to a new 96-well plate. The well was diluted with 180 ul of water and absorbance was checked at 595 nm on a spectrophotometer.
To identify the potential functional group of MeJA for its biofilm-inducing property, several jasmonic acid analogues were screened for their biofilm-inducing capability in the soil microbiome. The analogues were used to study biofilm induction in both complex soil microbiomes (FIG. 8).

soil microbiome = assay: Biofilm induction by liquid MeJA concentration range; format: cell-based; conditions: pure liquid MeJA
Protocol: Biofilm induction of the soil microbiome was tested with several concentrations of pure MeJA at the nanomolar level. It was confirmed that a concentration range from […] of MeJA was effective to induce biofilms without being detrimental to plant growth.

soil microbiota [1] = assay: Crystal violet biofilm biomass in push-pull dynamic system; format: cell-based; conditions: 5, 25 and 50 μmol MeJA spiked in soil chamber
Protocol: (§1) 5 g of JIFFY soil substrate was resuspended in 20 ml of PBS. This suspension was vortexed for 4 minutes and sonicated for 1 minute. It was then filtered through a strainer. The slurry that didn't pass through the strainer was again resuspended in 20 ml of PBS medium and subsequent steps were repeated twice. The filtrate was then centrifuged at 150G for 2 minutes to settle large soil particles and the supernatant was decanted into another tube. This supernatant was then centrifuged at 5500G for 5 minutes to obtain a bacterial pellet. This pellet was resuspended in 20 ml of soil extract medium. This suspension was referred to as “soil microbiota inoculum”. The final concentration in all inocula was around 1×10^8 bacteria per ml as quantified by Baclight bacterial counting kit (flow cytometry) or manual counting with a hemocytometer.
This system consists of an aerator/pump (to push air), 5 μm charcoal filter (to adsorb gaseous impurities), 0.22 μm filter (to trap microbial contamination), gas wash bottle (to moisturize the air), a source chamber (to host the source of volatiles), recipient chamber (to receive volatiles) and vacuum pump (to pull the air out) (FIG. 1D). […]
This method was used to get a proxy for biofilm biomass. […] The well was diluted with 180 ul of water and absorbance was checked at 595 nm on a spectrophotometer.

[2] = test system: soil microbiota biofilms (extracellular matrix proteins); assay: Live confocal imaging of biofilm matrix formation (SYPRO Ruby, 3D biovolume); format: cell-based
Protocol: as §1
(§2) For the confocal imaging experiments, soil inoculum was enriched in soil extract media overnight at 37° C.
(§3) Soil microbiota inoculum was prepared as described in the section above. MeJA was added to the microbiota to achieve the desired concentration (0, 1, 5, 25 nM for nucleic acid imaging experiment, and 0 and 5 nM for matrix imaging experiment). […] 50 µL of SYTO™9 (Thermo cat. no. S34854) solution (final concentration of 5 μM) was also added to all the wells. For matrix imaging, FilmTracer™ SYPRO™ Ruby Biofilm Matrix Stain (Thermo, cat. no. F10318) was added instead (ready to use, 1×concentration). For live imaging, Zeiss LSM 900 with Airyscan (Definite Focus 2) was used and images were acquired every 30 minutes for 24 hours with 65×oil objective at the NUS Centre for Bioimaging Science (CBIS). For both the dyes (separate experiments), a 488 nm laser was used.
(§4) Image analysis was performed using BiofilmQ software ([…]). Images were aligned along the Z-axis and along time. 2-class Otsu thresholding was used to detect the signal against the background. Sensitivity was set based on thresholding feedback. The rest of the settings were kept at default. Biofilm-related global properties were calculated and exported. We mainly focused on the 3D biovolume of our samples. Linear mixed-effects were used to model the biovolume where time, treatment, and their interaction were the fixed effects, and every sample was considered a random effect (Table 1 and Table 2). Following packages from R were used: nlme (Pinheiro, J. et al., R package version 3.1-153 (2021)), ggplot2 (Wickham, H., Wiley Interdiscip. Rev. Comput. Stat. 3, 180-185 (2011)).

soil microbiota [3] = assay: Live confocal imaging of soil microbiota biofilm formation (SYTO9 nucleic acid stain, 3D biovolume); format: cell-based
Protocol: as §1, §2, §3, §4

[4] = test system: microbial isolates from MeJA-induced complex biofilms; assay: Biofilm assay of monoculture strains isolated from MeJA-induced biofilms; format: cell-based; conditions: 5 nM MeJA, crystal violet after 24 hours
Protocol: Complex microbiota biofilm exposed to volatile MeJA was scraped off and resuspended in PBS. Through serial dilution, this inoculum was plated on soil extract agar, minimal media agar, and LB agar. Colonies with unique morphology were picked and streaked onto a fresh LB plate to acquire single colonies. The isolated strains were identified using Sanger sequencing of the PCR product with primers 27F and […]. Their biofilm response to volatile MeJA was tested using “push-pull” setup (as described above for complex biofilms). Their response to soluble MeJA was tested by directly adding MeJA to the monoculture inoculum (final concentration of 5 nM). For both assays, biofilms were stained with crystal violet and quantified after 24 hours as explained in the biofilm staining protocol. The initial OD of the inoculum was 0.2.

[5] = test system: soil microbiota biofilm community; assay: 16S rRNA gene amplicon quantitative microbiome profiling of VOC-exposed biofilm communities; conditions: 16 and 24 hours
Protocol: Using the push-pull airflow system, soil microbiota inoculum was exposed to four VOC treatments 1) soil VOCs; 2) WT Arabidopis rVOCs; 3) jmt Arabidopsis rVOCs; 4) jmt Arabidopsis rVOCs+MeJA. Biofilm and planktonic parts of the samples were collected from 28 wells after 16 and 24 hours and stored at −80° C. The collective sample from 28 wells was treated as a single experimental replicate. The whole experiment was repeated eight times.
Biofilm was scraped at specific timepoints and resuspended in PBS solution. DNA-RNA shield was added in 1:1 proportion and samples were stored at −80 C. Zymobiomics DNA miniprep kit was used to isolate DNA from the samples based on their protocol. 16S V4-V5 region was amplified using 515F-Y and 927R primers (Walters et al., mSystems 1 (2016)). 20 µL of reaction contained 2 μL of 10×DreamTaq buffer, 2 μL of 2 mM dNTP mix, 0.5 μL of each primer (10 µM), 0.5 μL of DreamTaq polymerase (5U/μL), 10 ng of template DNA, and molecular grade water to make up the volume. PCR conditions were as follows: initial denaturation at 95° C. for 3 minutes, 35 cycles of denaturation at 95° C. for 45 s, annealing at 50° C. for 45 s, extension at 68° C. for 90 s and final extension at 68° C. for 5 minutes. PCR products were purified with a Genejet PCR purification kit. Amplicon concentration was measured using Qubit DNA BR Kit and Qubit fluorometer. 16S amplicons were submitted for next-gen sequencing on Illumina MiSeq V3 Run (300 base pairs paired-end) at Singapore Centre for Life Science Engineering (SCELSE). Rarefaction analysis was performed to calculate appropriate depth for sequencing (FIG. 17B).
To enumerate the 16S rRNA gene copy numbers, the primer pair 515F and 806R (Walters, W. et al., MSystems 1, (2016)) were used in qPCR to amplify the 16S gene using Applied Biosystem real-time PCR system. The PCR assay mixture consists of 10 ul of PowerUp™ SYBR™ Green Master Mix, 1 ul of each primer from 10 µM stock, 1 ul of DNA of extracted DNA from the microbial population, and 7 ul of sterile nuclease-free water. The PCR amplification program encompassed an initial denaturation step at 95° C. for 3 min followed by 40 three-step cycles at 95° C. for 30 s, at 52° C. for 30 s and 72° C. for 30 s. Plasmid with the fragments of 16S rRNA gene part amplified with same primer pair was taken as standard for creating standard curve with known copy number for absolute quantification. Pearson correlation was calculated for the qPCR-derived copy number and the DNA yield from all the samples (FIG. 17D).
Raw and demultiplexed sequencing data was analysed as follows (also described in a flowchart in FIG. 17A): Primer and adapter sequences were removed using cutadapt (Martin, M., EMBnet.journal 17, 10-12 (2011)). […]

[6] = 5 nM MeJA, time-treatment interaction

Compound: CC/C=C\CC1=C(C)CCC1=O [Cis-jasmone, cis-jasmone]
- potential for biofilm induction among jasmonic acid analogues (Complex soil microbiome): highest potential for biofilm induction

Compound: CCCCCC1C(=O)CCC1CC(=O)O (stereo not shown) [DHJ, Dihydro jasmonic acid]
- potential for biofilm induction among jasmonic acid analogues (Complex soil microbiome): highest potential for biofilm induction

Compound: CC/C=C\CC1C(=O)CCC1CC(=O)OC (stereo not shown) [MeJA, Methyl jasmonate]
- concentration effective to induce biofilms without being detrimental to plant growth (soil microbiome): ≥ 500 nM
- potency in biofilm promotion, volatile form (soil microbiota [1]): higher at low concentrations (5 μmol) and gradually declined in a dose-dependent manner
- time from which MeJA influence appeared in the matrix ([2]; 5 nM MeJA): ≥ 7 h
- effect on biofilm matrix ([2]; 5 nM MeJA vs non-treated biofilm): promoted biofilm matrix compared to non-treated biofilm
- Linear mixed-effects model Value, Treatment5 (matrix Biovolume) ([2]; 5 nM MeJA, SYPRO Ruby): 294.3537
- Linear mixed-effects model Value, Hours: Treatment5 (matrix Biovolume) [2, 6]: 11.25
- Linear mixed-effects model Value, Treatment1 nM (Biovolume) (soil microbiota [3]; 1 nM MeJA, SYTO9, imaging over 24 hours): −988.35
- Linear mixed-effects model Value, Hours: Treatment1 nM (Biovolume) (soil microbiota [3]; 1 nM MeJA, time-treatment interaction): 106.209
- time from which biovolumes differed (soil microbiota [3]; 5 nM MeJA): ≥ 15 h
- interaction of time and treatment in mixed-effects model (soil microbiota [3]; 5 nM MeJA vs non-treated biofilms): statistically significant
- biofilm growth trajectory (biovolume) (soil microbiota [3]; 5 nM MeJA, 0 to 24 hours, vs control): increasingly higher biofilm growth trajectory compared to the control
- Linear mixed-effects model Value, Treatment5 nM (Biovolume) (soil microbiota [3]; 5 nM MeJA, SYTO9, imaging over 24 hours): −453.513
- Linear mixed-effects model Value, Hours: Treatment5 nM (Biovolume) (soil microbiota [3]; [6]): 102.9409
- Linear mixed-effects model Value, Treatment25 nM (Biovolume) (soil microbiota [3]; 25 nM MeJA, SYTO9, imaging over 24 hours): −1245.62
- Linear mixed-effects model Value, Hours: Treatment25 nM (Biovolume) (soil microbiota [3]; 25 nM MeJA, time-treatment interaction): 90.7811
- strains MeJA-responsive in biofilm formation, of nine tested [4]: six
- share of biofilm community with significant shift in abundance ([5]; WT rVOCs vs soil VOCs, MeJA: jmt+MeJA vs jmt rVOCs): ~10%
- number of promoted ASVs ([5]; vs respective control): 21 ASVs
- number of repressed ASVs ([5]; vs respective control): 82 ASVs
- number of responding ASVs ([5]; vs respective control): 103 ASVs
